We go through seven molecules from PMC3391563 (2011).

Where two headings read alike, the source gives them in different places.

The target of assay [1] is T1, Af-OMO (ornithine monooxygenase, SidA) (Aspergillus fumigatus, UniProt E9QYP0). In words: stopped-flow UV/vis, concentration dependence of kobs for FAD-OOH formation. The format is biochemical.
In assay [2] the target is T1, Af-OMO (ornithine monooxygenase, SidA). In words: hydroxylation coupling ratio. In kind it is biochemical.
Assay [3] shares this target. In words: stopped-flow UV/vis, concentration dependence of kobs. The format is biochemical.
Assay [4] has the same target. The description is as above. In kind it is biochemical. The source holds these as a separate data set.
The target is the same in assay [5].
Assay [6] shares this target. In words: stopped-flow. The format is biochemical.
Assay [7] has the same target. In words: stopped-flow UV/vis, concentration dependence of kobs for FAD-OOH formation. In kind it is biochemical. The source holds these as a separate data set.

T1 sequence (E9QYP0 whole entry): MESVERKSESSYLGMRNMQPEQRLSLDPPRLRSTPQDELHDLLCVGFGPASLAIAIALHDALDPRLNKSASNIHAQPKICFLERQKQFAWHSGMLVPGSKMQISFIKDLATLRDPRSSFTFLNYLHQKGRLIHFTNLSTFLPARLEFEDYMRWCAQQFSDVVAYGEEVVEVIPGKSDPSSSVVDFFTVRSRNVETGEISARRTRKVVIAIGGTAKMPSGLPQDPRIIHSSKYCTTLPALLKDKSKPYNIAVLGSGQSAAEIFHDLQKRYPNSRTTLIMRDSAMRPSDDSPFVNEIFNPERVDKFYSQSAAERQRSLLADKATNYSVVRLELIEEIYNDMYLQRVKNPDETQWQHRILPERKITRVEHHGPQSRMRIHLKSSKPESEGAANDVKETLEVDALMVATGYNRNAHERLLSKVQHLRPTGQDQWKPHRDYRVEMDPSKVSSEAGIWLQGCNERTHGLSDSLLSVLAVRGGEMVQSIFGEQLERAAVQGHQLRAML

Take `NC(=O)NCCC[C@H](N)C(=O)O` [L-Citr, L-citrulline]: the Kd (commonly the equilibrium constant for the complex coming apart) in assay [1] was 4400 ± 900 µM.
Regarding `NCCC[C@@H](N)C(=O)O` [D-Orn, D-ornithine], the “compd-OH: NADPH ^c” value in assay [2] is given as 0.63 (0.03).
As for `NCCC[C@H](N)C(=O)O` [L-Orn, L-ornithine], the Kd in assay [3] came to 310 ± 40 µM.
For `NCCCC[C@H](N)C(=O)O` [L-Lys, L-lysine], binding in assay [4] was characterised by a dissociation constant (Kd) of 130 ± 30 µM.
Turning to `NCCCCN` [DAB, 1,4-diaminobutane], in assay [5], the “compd-OH: NADPH ^c” value is recorded as 0.59 (0.02).
As to `N[C@@H](CCCNO)C(=O)O` [L-Orn-N^εOH, N^ε-hydroxy-L-ornithine], in assay [6], the “kFAD (s^-1)” value is 0.34 (0.01) s^-1.
For the molecule `N=C(N)NCCC[C@H](N)C(=O)O` [L-Arg, L-arginine], binding in assay [7] was put at a Kd of 620 ± 70 µM.
